Reference: ChEMBL document CHEMBL1201862, “PubChem BioAssay data set” (2004)
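96-well plates; 48 h exposure; 5 concentrations. Endpoints by linear interpolation between flanking doses. Not reached: highest tested concentration assigned. Here, GI50 denotes the concentration required for 50% inhibition of growth.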 Calls of active or inactive are those of the source. No stated cut-off is given here; in the data, active = GI50 up to about 1.1 µM and inactive = higher.

How the values were obtained:
Test in all cases: DTP human tumour cell line panel, 48 h
[1] = test system: MCF7
[2] = test system: DU-145
[3] = test system: 786-0
[4] = test system: K562
[5] = test system: LOX IMVI
[6] = test system: OVCAR-3
[7] = test system: OVCAR-4
[8] = test system: SNB-19
[9] = test system: OVCAR-5
[10] = test system: SF-268
[11] = test system: SK-MEL-2
[12] = test system: NCI-H522
[13] = test system: NCI-H23
[14] = test system: SF-295
[15] = test system: EKVX
[16] = test system: MDA-MB-435
[17] = test system: HCC 2998
[18] = test system: CCRF-CEM
[19] = test system: SW-620
[20] = test system: HL-60

Row | Structure (SMILES) | GI50 [1] | GI50 [2] | GI50 [3] | GI50 [4] | GI50 [5] | GI50 [6] | GI50 [7] | GI50 [8] | GI50 [9] | GI50 [10] | GI50 [11] | GI50 [12] | GI50 [13] | GI50 [14] | GI50 [15] | GI50 [16] | GI50 [17] | GI50 [18] | GI50 [19] | GI50 [20]
1 | Cn1c(=O)c2nc(CCCc3ccc([N+](=O)[O-])cc3)[nH]c2n(C)c1=O | > 100 µM (inactive) | > 100 µM (inactive) | > 100 µM (inactive) | 31.2 µM (inactive) | > 100 µM (inactive) | > 100 µM (inactive) | > 100 µM (inactive) | > 100 µM (inactive) | > 100 µM (inactive) | > 100 µM (inactive) | > 100 µM (inactive) | > 100 µM (inactive) | > 100 µM (inactive) | > 100 µM (inactive) | > 100 µM (inactive) | > 100 µM (inactive) | – | – | – | –
2 | COC(=O)C1=C(O)C(C(=O)OC)[C@]2(O)[C@H](C(=O)OC)[C@H]1C[C@@H](c1ccc(F)cc1)[C@H]2C(=O)OC (stereo partly drawn) | 5.35 µM (inactive) | 14.8 µM (inactive) | 14.9 µM (inactive) | 9.23 µM (inactive) | 18.4 µM (inactive) | 11.1 µM (inactive) | 22.4 µM (inactive) | 19.1 µM (inactive) | 17.7 µM (inactive) | 23.7 µM (inactive) | 4.35 µM (inactive) | – | 14 µM (inactive) | 14.2 µM (inactive) | 17.3 µM (inactive) | 5.43 µM (inactive) | 14.6 µM (inactive) | 6.85 µM (inactive) | 13.2 µM (inactive) | 2.92 µM (inactive)
3 | O=C1c2cc(Cl)ccc2N=C(NC2CCCC2)C2CSCN12 (stereo not drawn) | > 100 µM (inactive) | > 100 µM (inactive) | > 100 µM (inactive) | 59.2 µM (inactive) | > 100 µM (inactive) | 60 µM (inactive) | > 100 µM (inactive) | > 100 µM (inactive) | > 100 µM (inactive) | 66.5 µM (inactive) | 36.2 µM (inactive) | 63.8 µM (inactive) | – | > 100 µM (inactive) | 46.6 µM (inactive) | > 100 µM (inactive) | > 100 µM (inactive) | 45.2 µM (inactive) | > 100 µM (inactive) | –
4 | CCN(CCO)CC1CCCC2CCCCC21 (stereo not drawn) | > 100 µM (inactive) | > 100 µM (inactive) | > 100 µM (inactive) | 46.5 µM (inactive) | – | > 100 µM (inactive) | > 100 µM (inactive) | > 100 µM (inactive) | > 100 µM (inactive) | > 100 µM (inactive) | > 100 µM (inactive) | > 100 µM (inactive) | > 100 µM (inactive) | > 100 µM (inactive) | > 100 µM (inactive) | > 100 µM (inactive) | > 100 µM (inactive) | – | > 100 µM (inactive) | –
5 | Cc1cc2nc(N3C(=O)/C(=C/c4ccc(Cl)cc4)N=C3c3ccccc3)sc2cc1C | 23.4 µM (inactive) | 50.8 µM (inactive) | 29.4 µM (inactive) | 32.4 µM (inactive) | 20.5 µM (inactive) | 15.7 µM (inactive) | 20 µM (inactive) | 42.5 µM (inactive) | 24.2 µM (inactive) | 30 µM (inactive) | 26.5 µM (inactive) | – | – | 31.2 µM (inactive) | 24.4 µM (inactive) | 8.28 µM (inactive) | 24.2 µM (inactive) | 18.1 µM (inactive) | 27.6 µM (inactive) | 21.6 µM (inactive)
6 | Cc1[nH]c2[nH]c(=S)nc(NC(N)=S)c2c1Cc1ccccc1 | 38.1 µM (inactive) | 49.5 µM (inactive) | 26.8 µM (inactive) | 25.9 µM (inactive) | 19.6 µM (inactive) | 28 µM (inactive) | – | 97.9 µM (inactive) | > 100 µM (inactive) | 43.8 µM (inactive) | 93.1 µM (inactive) | – | 29.7 µM (inactive) | 35.2 µM (inactive) | 48.4 µM (inactive) | 17.3 µM (inactive) | – | 21.9 µM (inactive) | 34 µM (inactive) | 13.6 µM (inactive)
7 | c1ccc(CN2CCC(Nc3ccccc3)(c3nnnn3Cc3ccccc3)CC2)cc1 | 22.4 µM (inactive) | 38.4 µM (inactive) | 22.4 µM (inactive) | – | 20.1 µM (inactive) | – | 29.6 µM (inactive) | 27.3 µM (inactive) | 22.5 µM (inactive) | > 100 µM (inactive) | – | – | 50 µM (inactive) | 20.5 µM (inactive) | 23.8 µM (inactive) | 32.9 µM (inactive) | 3.01 µM (inactive) | 20 µM (inactive) | 22.2 µM (inactive) | 11.5 µM (inactive)
8 | O=C(c1ccccc1)C1N=NCC1c1ccc([N+](=O)[O-])cc1 (stereo not drawn) | 22.4 µM (inactive) | 18.4 µM (inactive) | > 100 µM (inactive) | 32.5 µM (inactive) | 36.6 µM (inactive) | 17.1 µM (inactive) | 49.2 µM (inactive) | 54.8 µM (inactive) | > 100 µM (inactive) | 40.5 µM (inactive) | 46.9 µM (inactive) | – | 36.1 µM (inactive) | > 100 µM (inactive) | 89.1 µM (inactive) | 49.1 µM (inactive) | > 100 µM (inactive) | 0.935 µM (active) | > 100 µM (inactive) | 23.1 µM (inactive)
9 | O=C(c1ccccc1)c1ccc(N2C(=O)/C(=C/c3cccc([N+](=O)[O-])c3)N=C2c2ccccc2)c(N2C(=O)/C(=C/c3cccc([N+](=O)[O-])c3)N=C2c2ccccc2)c1 | 26.7 µM (inactive) | 51.9 µM (inactive) | 79.1 µM (inactive) | 31.7 µM (inactive) | 42 µM (inactive) | 30 µM (inactive) | 34.6 µM (inactive) | 54.8 µM (inactive) | > 100 µM (inactive) | 62.5 µM (inactive) | 26.4 µM (inactive) | – | – | 16.2 µM (inactive) | > 100 µM (inactive) | 4.88 µM (inactive) | 15 µM (inactive) | – | 32.9 µM (inactive) | 0.759 µM (active)
10 | CCC(CCCN)Nc1cc(OC)cc2cccnc12 (stereo not drawn) | 29.4 µM (inactive) | > 100 µM (inactive) | > 100 µM (inactive) | 57 µM (inactive) | > 100 µM (inactive) | 40.4 µM (inactive) | 90.2 µM (inactive) | > 100 µM (inactive) | > 100 µM (inactive) | > 100 µM (inactive) | > 100 µM (inactive) | – | – | > 100 µM (inactive) | > 100 µM (inactive) | > 100 µM (inactive) | 22.7 µM (inactive) | 48.9 µM (inactive) | > 100 µM (inactive) | 21.9 µM (inactive)
11 | O=C(CC1(O)C(=O)Nc2c(Cl)cc(Cl)cc21)c1cccc([N+](=O)[O-])c1 (stereo not drawn) | 11.9 µM (inactive) | > 100 µM (inactive) | 22.2 µM (inactive) | 19.8 µM (inactive) | 17 µM (inactive) | 25 µM (inactive) | 14.4 µM (inactive) | > 73.1 µM (inactive) | 55.7 µM (inactive) | 44.4 µM (inactive) | 34.3 µM (inactive) | 67 µM (inactive) | 19.4 µM (inactive) | 31 µM (inactive) | 52.5 µM (inactive) | 5.12 µM (inactive) | > 45.2 µM (inactive) | 17.4 µM (inactive) | 20.1 µM (inactive) | –
12 | N#CC(=S)Nc1cccc(Cl)c1 | 46.8 µM (inactive) | 50.8 µM (inactive) | 40.5 µM (inactive) | 19.5 µM (inactive) | 39.3 µM (inactive) | 16 µM (inactive) | 42.4 µM (inactive) | 54.5 µM (inactive) | 28.5 µM (inactive) | 40.5 µM (inactive) | 26.5 µM (inactive) | – | 31.4 µM (inactive) | 23.8 µM (inactive) | 41.1 µM (inactive) | 33.1 µM (inactive) | 28.8 µM (inactive) | 30 µM (inactive) | 53.2 µM (inactive) | 33.2 µM (inactive)
13 | C=C1C(=O)[C@@]23CC[C@@H]4[C@@]5(C)CCC[C@@]4(OC5=O)C2(C)CC[C@]1(OC)C3 (stereo partly drawn) | 0.255 µM (active) | 4.41 µM (inactive) | 0.279 µM (active) | 0.0993 µM (active) | 0.232 µM (active) | 1.01 µM (active) | – | 1.83 µM (inactive) | 2.06 µM (inactive) | 2.14 µM (inactive) | 1.06 µM (active) | 0.406 µM (active) | 1.45 µM (inactive) | 3.4 µM (inactive) | 9.18 µM (inactive) | 1.32 µM (inactive) | 0.351 µM (active) | 0.0605 µM (active) | 0.718 µM (active) | –
14 | COc1cc(/C=N/c2ccc(S(N)(=O)=O)cc2)cc(OC)c1 | 22.3 µM (inactive) | > 50 µM (inactive) | > 50 µM (inactive) | 42.1 µM (inactive) | 46.6 µM (inactive) | > 50 µM (inactive) | > 50 µM (inactive) | > 50 µM (inactive) | > 50 µM (inactive) | > 50 µM (inactive) | > 50 µM (inactive) | – | > 50 µM (inactive) | > 50 µM (inactive) | > 50 µM (inactive) | 14 µM (inactive) | > 50 µM (inactive) | 34.3 µM (inactive) | – | 13.6 µM (inactive)
15 | O=C1/C(=C\c2c(-c3ccccc3)[nH]n(-c3ccccc3)c2=O)C(c2ccccc2)=NN1c1ccccc1 | > 100 µM (inactive) | > 100 µM (inactive) | > 100 µM (inactive) | 87.5 µM (inactive) | > 100 µM (inactive) | > 100 µM (inactive) | > 100 µM (inactive) | > 100 µM (inactive) | > 100 µM (inactive) | > 100 µM (inactive) | > 100 µM (inactive) | – | > 100 µM (inactive) | > 100 µM (inactive) | > 100 µM (inactive) | > 100 µM (inactive) | > 100 µM (inactive) | 79.4 µM (inactive) | > 100 µM (inactive) | > 100 µM (inactive)
